Results published in US12496361B2, “Imaging compounds for detecting or imaging senescent cells” (University of Dundee, priority 2023, dated 2025).

Assays:
HBEC CDC6 Tet-ON cells [1] = assay: Detection of senescent cells in cell cultures by fluorescent microscopy; assay type: cell-based
Description: (§1) 1-Ethyl-2-((E)-2-((E)-3-((E)-2-(1-ethyl-3,3-dimethylindolin-2-ylidene)ethylidene)-2-((4-(4-((2-methyl-6-((E)-(4-((E)-phenyldiazenyl)naphthalen-1-yl)diazenyl)-2,3-dihydro-1H-perimidin-2-yl)methoxy)-4-oxobutanamido)butyl)amino)cyclohex-1-en-1-yl)vinyl)-3,3-dimethyl-3H-indol-1-ium iodide (15, Scheme 2, Example 2) was used to detect senescent cells in cell spreads using fluorescent microscopy (FIG. 1).
(§2) Li-Fraumeni-p21^WAF1/Cip1 or HBEC-CDC6 Tet-ON cellular systems were grown on cover slips and collected before and after the mentioned respective treatments for induction of senescence. Cover slips were treated as follows: • a) Cell spreads, immobilized preferably on a microscopy coverslip, are fixed in 4% paraformaldehyde (PFA) for 10 minutes at 4° C.; • b) Wash with PBS; • c) Cell membrane permeabilization: Immerse coverslips in solution of 0.3% Triton-X 100 diluted in PBS for 15 minutes; • d) Wash with PBS; • e) Apply compound of formula I on cells for 10 minutes in dark conditions; • f) Wash 3 times with fresh wash buffer [PBS/DMSO (2.5%)/TWEEN-20 (2.5%)]; • g) Incubate cells with 0.3% Triton-X 100 diluted in PBS for 3 minutes; • h) Wash with PBS; • i) Apply DAPI 1/5000 for 5 minutes in dark condition; • j) Rinse samples with dH2O for 30 seconds; • k) Cover section using a mounting medium for immunofluorescence.

[2] = test system: Li-Fraumeni-p21^WAF1/Cip1 Tet-ON cells; assay: as above; assay type: cell-based
Description: as §1, §2

HBEC CDC6 Tet-ON cells [3] = assay: Detection by flow cytometry of senescent cells in cell culture; assay type: cell-based; conditions: with or without Doxycycline; anti-Ki67-Pacific blue only (HBEC cells do not express p16^INK4A)
Description: as §1, with “senescent cultured” for “senescent”, “by flow cytometry.” for “in cell spreads using fluorescent microscopy (FIG. 1).”
(§3) Li-Fraumeni-p21^WAF1/Cip1 or HBEC-CDC6 Tet-ON cellular systems were grown in culture without or with Doxycyclin to induce senescence. Subsequently cells were treated and assessed as follows: • 1. Harvest cells from culture. • 2. Centrifuge at 1200 rpm for 5 min at RT. • 3. Wash ×1 in 5 ml PBS at RT. • 4. Resuspend cell pellet in 4% PFA and incubate them for 15 min in RT (fixation) • 5. Centrifuge at 1200 rpm for 5 min at RT. • 6. Resuspend cell pellet in 0.3% Triton-X/PBS and incubate it for 15 min at RT. • 7. Wash ×1 in 2 ml PBS at RT • 8. Centrifuge at 1200 rpm for 5 min at RT. • 9. Incubate samples with 100 μl of GLF16 for 8 min under gently shaking in dark condition • 10. Add 2 ml of wash buffer [PBS/DMSO (2.5%)/TWEEN-20 (2.5%)] and centrifuge at 1200 rpm for 5 min at RT (×2) • 11. Incubate with primary-conjugated antibody/ies for 20 min RT • 12. Centrifuge at 1200 rpm for 5 min at RT (×2) • 13. Apply flow cytometry buffer (PBS/5% FBS)

[4] = test system: Li-Fraumeni-p21^WAF1/Cip1 Tet-ON cells; assay: as above; assay type: cell-based; conditions: with or without Doxycycline; anti-Ki67-Pacific blue and anti-p16^INK4A-APC; 3 independent experiments
Description: as §1, with “senescent cultured” for “senescent”, “by flow cytometry.” for “in cell spreads using fluorescent microscopy (FIG. 1).”
as §3

[5] = test system: senescent cells in tissue sections of murine models (K-ras^V12-induced lung adenomas, palbociclib-treated human melanoma xenografts, bleomycin-induced lung …); assay: Detection of senescent cells in tissue sections by fluorescent microscopy, murine models; conditions: bleomycin-treated lungs
Excerpt: as §1, with “tissue sections by” for “cell spreads using”, “microscopy.” for “microscopy (FIG. 1).”
(§4) Tissue sections were obtained from paraffin embedded, formalin fixed of: (A) irradiated human laryngeal tumors, (B) chemotherapy-treated breast tissues, (C) liver specimens from aged versus young individuals, (D) K-ras^V12 induced lung adenomas, (E) Palbociclib-treated human melanoma xenografts, and (F) Bleomycin-induced lung fibrosis mouse model, with established presence of senescent cells. Subsequently, they were immobilized on glass microscopy slides by standard procedures and processed as follows: • i. Section deparaffinization through a 30 minutes incubation at 60° C., followed by washing in xylene for 15 minutes at room temperature. • ii. Gradual rehydration of biopsy material, usually fixed tissues, in solutions of descending concentration of ethanol (100%, 96%, 80%, 70%, 50% v/v) for 5 minutes each step and finally in Phosphate-buffered saline (PBS) buffering solution; • iii. Antigen retrieval by heating in citrate acid solution 10 mM, pH=6. […]

[6] = test system: senescent cells in human tissue sections (irradiated laryngeal, chemotherapy-treated breast, aged liver); assay: Detection of senescent cells in tissue sections by fluorescent microscopy, human clinical settings; conditions: chemotherapy-treated breast tissues, liver specimens from aged individuals versus respective controls, FFPE sections
Excerpt: as §1, with “tissue sections by” for “cell spreads using”, “microscopy.” for “microscopy (FIG. 1).”
as §4

CCN1/C(=C/C=C2\CCCC(/C=C/C3=[N+](CC)c4ccccc4C3(C)C)=C2NCCCCNC(=O)CCC(=O)OCC2(C)Nc3cccc4c(/N=N/c5ccc(/N=N/c6ccccc6)c6ccccc56)ccc(c34)N2)C(C)(C)c2ccccc21 (stereo not shown) [GLF16, 1-ethyl-2-((E)-2-((E)-3-((E)-2-(1-ethyl-3,3-dimethylindolin-2-ylidene)ethylidene)-2-((4-(4-((2-methyl-6-((E)-(4-((E)-phenyldiazenyl)naphthalen-1-yl)diazenyl)-2,3-dihydro-1H-perimidin-2-yl)methoxy)-4-oxobutanamido)butyl)amino)cyclohex-1-en-1-yl)vinyl)-3,3-dimethyl-3H-indol-1-ium iodide]
specificity: co-staining with p21^WAF1/Cip and Ki67 (HBEC CDC6 Tet-ON cells [1]; (+) Doxycycline, FIG. 2 panels F, G): concordant staining presence of the senescence associated factors | staining of senescent cells (HBEC CDC6 Tet-ON cells [1]; FIG. 2 panel E, (-) Doxycycline as negative control): successful application | specificity: co-staining with p16^INK4A and Ki67 ([2]; (+) Doxycycline, FIG. 2 panels B, C): concordant staining presence of the senescence associated factors | co-staining with the proliferative marker Ki67 ([2]; FIG. 2C): inverse relationship between GLF16 and Ki67 positivity | GLF16 staining signal ([2]; cells treated or not with Doxycycline for 6-8 days, fixed, permeabilized, confocal microscope): intense cytoplasmic signal (corresponding to lipofuscin aggregates) abundant in senescent cells and entirely absent in untreated ones | co-detection of GLF16 with senescence markers in gated GLF16 (+) and (-) cells (HBEC CDC6 Tet-ON cells [3]): co-detection of GLF16 and senescence markers (p16^INK4A and absence of Ki67) in the senescent population (induced cells) | co-detection of GLF16 with senescence markers in gated GLF16 (+) and (-) cells [4]: co-detection of GLF16 and senescence markers (p16^INK4A and absence of Ki67) in the senescent population (induced cells) | concurrent staining with Ki67, p21^WAF1/Cip1 and p16^INK4A ([5]; FIG. 3 G-I, tissue per panel not stated except H): coincided with p16^INKA4 or p21^WAF1/Cip1 but not with Ki67 | GLF16 (lipofuscin) positive macrophages ([5]; FIG. 3H): positive macrophages in bleomycin-treated lungs are also evident | GLF16-positive cells in tissue [6]: abundant in GLF16-positive cells while in respective controls these positive cells were totally absent
